Test results taken from ChEMBL document CHEMBL3853322, “Thrombospondin-1 Mimetic Agonist Peptides Induce Selective Death in Tumor Cells: Design, Synthesis, and Structure-Activity Relationship Studies” (J Med Chem, 2016).
Values after ≈ are worked out from the molar mass of the structure shown. Active and inactive are the calls of the source. No cut-off for these calls is given here. Square brackets hold non-standard residues; d marks the D form. Peptide text beside a SMILES is read from it. * marks the point of attachment. X1 = N=C(N)NCCC[C@H](CN)C(=O)*; β3hK = NCCCC[C@H](N)CC(=O)O

Tests used:
[1] = Induction of programmed cell death in human MEC1 cells at 200 uM after 2 hrs by Annexin-V/propidium iodide staining based FACS analysis; assay type: functional
[2] = Induction of programmed cell death in human HCT116 cells at 50 uM after 2 hrs by Annexin-V/propidium iodide staining based FACS analysis; assay type: functional, HCT-116
MCF7 [3] = assay: Induction of apoptosis in human MCF7 cells assessed as early apoptotic cells at 200 uM after 2 hrs by Annexin-V/propidium iodide staining based FACS analysis (reference value: 4%); assay type: functional
HCT-116 [4] = assay: Induction of apoptosis in human HCT116 cells assessed as early apoptotic cells at 200 uM after 2 hrs by Annexin-V/propidium iodide staining based FACS analysis (reference value: 4%); assay type: functional
[5] = Induction of programmed cell death in human MEC1 cells at 50 uM after 2 hrs by Annexin-V/propidium iodide staining based FACS analysis; assay type: functional
[6] = Aqueous solubility of compound in 50 mM sodium succinate buffer at >1 mM at pH 5 by 1D 1H NMR spectroscopic analysis; assay type: physicochemical
[7] = Metabolic stability in human serum at 10 mg/ml at 37 degC after 2 hrs by HPLC analysis; assay type: ADME
MCF7 [8] = assay: Induction of apoptosis in human MCF7 cells assessed as late apoptotic cells at 200 uM after 2 hrs by Annexin-V/propidium iodide staining based FACS analysis (reference value: 22%); assay type: functional
HCT-116 [9] = assay: Induction of apoptosis in human HCT116 cells assessed as late apoptotic cells at 200 uM after 2 hrs by Annexin-V/propidium iodide staining based FACS analysis (reference value: 5%); assay type: functional
MCF7 [10] = assay: Induction of programmed cell death in human MCF7 cells after 2 hrs by Annexin-V/propidium iodide staining based FACS analysis; assay type: functional
HCT-116 [11] = assay: Induction of programmed cell death in human HCT116 cells after 2 hrs by Annexin-V/propidium iodide staining based FACS analysis; assay type: functional
A549 [12] = assay: Induction of apoptosis in human A549 cells assessed as late apoptotic cells at 200 uM after 2 hrs by Annexin-V/propidium iodide staining based FACS analysis (reference value: 5%); assay type: functional
[13] = Induction of programmed cell death in human HCT116 cells at 200 uM after 2 hrs by Annexin-V/propidium iodide staining based FACS analysis; assay type: functional, HCT-116
A549 [14] = assay: Induction of programmed cell death in human A549 cells after 2 hrs by Annexin-V/propidium iodide staining based FACS analysis; assay type: functional
A549 [15] = assay: Induction of apoptosis in human A549 cells assessed as early apoptotic cells at 200 uM after 2 hrs by Annexin-V/propidium iodide staining based FACS analysis (reference value: 2%); assay type: functional
[16] = Induction of programmed cell death in human A549 cells at 50 uM after 2 hrs by Annexin-V/propidium iodide staining based FACS analysis; assay type: functional
[17] = Drug degradation in human serum up to 5 mins by HPLC analysis; assay type: ADME
[18] = Induction of cell death in human LNCAP cells at 300 uM after 2 hrs by Annexin-V/propidium iodide staining based FACS analysis; assay type: functional
CLL [19] = assay: Induction of programmed cell death in human CLL cells harboring TP53 17p deletion mutant at 50 to 400 uM after 2 hrs by Annexin-V/propidium iodide staining based FACS analysis; assay type: functional
[20] = Induction of cell death in human Ramos cells at 300 uM after 2 hrs by Annexin-V/propidium iodide staining based FACS analysis; assay type: functional
[21] = Induction of cell death in human HeLa cells at 300 uM after 2 hrs by Annexin-V/propidium iodide staining based FACS analysis; assay type: functional
[22] = Induction of cell death in human RPMI8226 cells at 300 uM after 2 hrs by Annexin-V/propidium iodide staining based FACS analysis; assay type: functional, RPMI-8226
[23] = Induction of cell death in human OVCAR10 cells at 300 uM after 2 hrs by Annexin-V/propidium iodide staining based FACS analysis; assay type: functional
[24] = Induction of cell death in human JM1 cells at 300 uM after 2 hrs by Annexin-V/propidium iodide staining based FACS analysis; assay type: functional
[25] = Induction of cell death in human CEM cells at 300 uM after 2 hrs by Annexin-V/propidium iodide staining based FACS analysis; assay type: functional, CCRF-CEM
[26] = Induction of cell death in human MDA-MB-231 cells at 300 uM after 2 hrs by Annexin-V/propidium iodide staining based FACS analysis; assay type: functional
[27] = Induction of cell death in human Raji cells at 300 uM after 2 hrs by Annexin-V/propidium iodide staining based FACS analysis; assay type: functional
[28] = Induction of cell death in human MCF7 cells at 300 uM after 2 hrs by Annexin-V/propidium iodide staining based FACS analysis; assay type: functional
[29] = Induction of cell death in human AU565 cells at 300 uM after 2 hrs by Annexin-V/propidium iodide staining based FACS analysis; assay type: functional
CLL [30] = assay: Induction of programmed cell death in human CLL cells at 50 to 400 uM after 2 hrs by Annexin-V/propidium iodide staining based FACS analysis; assay type: functional
CLL [31] = assay: Induction of programmed cell death in human CLL cells harboring ATM 11q deletion mutant at 50 to 400 uM after 2 hrs by Annexin-V/propidium iodide staining based FACS analysis; assay type: functional
[32] = Cytotoxicity against human B lymphocytes assessed as cell death at 50 to 400 uM after 2 hrs by Annexin-V/propidium iodide staining based FACS analysis; assay type: toxicity
[33] = Induction of cell death in human U937 cells at 300 uM after 2 hrs by Annexin-V/propidium iodide staining based FACS analysis; assay type: functional, U-937
[34] = Induction of cell death in human RPMI8866 cells at 300 uM after 2 hrs by Annexin-V/propidium iodide staining based FACS analysis; assay type: functional, RPMI-8866
[35] = Induction of cell death in human HBL100 cells at 300 uM after 2 hrs by Annexin-V/propidium iodide staining based FACS analysis; assay type: functional, HBL-100
[36] = Induction of cell death in human MEC1 cells at 300 uM after 2 hrs by Annexin-V/propidium iodide staining based FACS analysis; assay type: functional
[37] = Induction of cell death in human A549 cells at 300 uM after 2 hrs by Annexin-V/propidium iodide staining based FACS analysis; assay type: functional
[38] = Induction of cell death in human Jurkat cells at 300 uM after 2 hrs by Annexin-V/propidium iodide staining based FACS analysis; assay type: functional
[39] = Aqueous solubility of compound in 50 mM sodium succinate buffer at 2 mM at pH 5 by 1D 1H NMR spectroscopic analysis; assay type: physicochemical
[40] = biological target: Leukocyte surface antigen CD47 (Homo sapiens, UniProt Q08722); assay: Binding affinity to CD47 receptor in human biotinylated MEC1 cell membranes by biolayer interferometry
Leukocyte surface antigen CD47, sequence (Q08722 whole entry): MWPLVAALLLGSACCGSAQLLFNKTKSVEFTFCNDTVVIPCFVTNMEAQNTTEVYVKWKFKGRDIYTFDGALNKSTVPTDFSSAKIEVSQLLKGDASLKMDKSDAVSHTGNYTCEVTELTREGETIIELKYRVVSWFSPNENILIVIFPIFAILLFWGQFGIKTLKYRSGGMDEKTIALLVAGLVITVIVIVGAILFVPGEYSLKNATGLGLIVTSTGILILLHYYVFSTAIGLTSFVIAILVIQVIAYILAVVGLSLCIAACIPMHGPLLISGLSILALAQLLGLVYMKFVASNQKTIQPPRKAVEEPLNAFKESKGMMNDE

Molecule: H-KRFYGGMWKK-OH
- Activity [1]: 2%

Molecule: CSCC[C@H](NC(=O)[C@@H](NC(=O)[C@@H](NC(=O)[C@H](Cc1ccc(O)cc1)NC(=O)[C@H](Cc1ccccc1)NC(=O)[C@H](C)NC(=O)[C@H](N)CCCCN)C(C)C)C(C)C)C(=O)N[C@@H](Cc1c[nH]c2ccccc12)C(=O)N[C@@H](CCCCN)C(=O)N[C@H](CCCCN)C(=O)O (H-[dK]AFYVVMWK[dK]-OH)
- Activity [1]: 44%

Molecule: CSCC[C@H](NC(=O)[C@@H](NC(=O)[C@@H](NC(=O)[C@H](Cc1ccc(O)cc1)NC(=O)[C@H](Cc1ccccc1)NC(=O)[C@H](CCCNC(=N)N)NC(=O)[C@H](N)CCCCN)C(C)C)C(C)C)C(=O)N[C@@H](Cc1c[nH]c2ccccc12)C(=O)N[C@@H](CCCCN)C(=O)N[C@H](CCCCN)C(=O)O
- Activity [2]: 38%
- Activity (MCF7 [3]): 6%
- Activity (HCT-116 [4]): 4%
- Activity [5]: 25%
- solubility [6]: Soluble
- Stability [7]: Stable
- Activity (MCF7 [8]): 52%
- Activity (HCT-116 [9]): 77%
- Activity (MCF7 [10]): Dose-dependent effect
- Activity (HCT-116 [11]): Dose-dependent effect
- Activity (A549 [12]): 60%
- Activity [13]: 80%
- Activity [1]: 63%
- Activity (A549 [14]): Dose-dependent effect
- Activity (A549 [15]): 5%
- Activity [16]: 25%

Molecule: CSCC[C@H](NC(=O)[C@@H](NC(=O)[C@@H](NC(=O)[C@H](Cc1ccc(O)cc1)NC(=O)[C@H](Cc1ccccc1)NC(=O)[C@H](CCCNC(=N)N)NC(=O)[C@H](N)CCCCN)C(C)C)C(C)C)C(=O)N[C@@H](C)C(=O)N[C@@H](CCCCN)C(=O)N[C@H](CCCCN)C(=O)O (H-[dK]RFYVVMAK[dK]-OH)
- Activity [1]: 35%

Molecule: CSCC[C@H](NC(=O)[C@@H](NC(=O)[C@@H](NC(=O)[C@H](Cc1ccc(O)cc1)NC(=O)[C@H](Cc1ccccc1)NC(=O)[C@H](CCCNC(=N)N)NC(=O)[C@@H](N)CCCCN)C(C)C)C(C)C)C(=O)N[C@@H](Cc1c[nH]c2ccccc12)C(=O)N[C@@H](CCCCN)C(=O)N[C@@H](CCCCN)C(=O)O
- Stability [17]: Unstable
- Activity [18]: 30%
- Activity (CLL [19]): Active
- Activity [20]: 30%
- Activity [21]: 30%
- Activity [22]: 30%
- solubility [6]: Soluble
- Activity [23]: 30%
- Activity [24]: 30%
- Activity [25]: 30%
- Activity [26]: 30%
- Activity [1]: 23%
- Activity [27]: 30%
- Activity [28]: 30%
- Activity [29]: 30%
- Activity (CLL [30]): Active
- Activity (CLL [31]): Active
- Activity [32]: Non-Toxic
- Activity [33]: 30%
- Activity [34]: 30%
- Activity [35]: 30%
- Activity [36]: 30%
- Activity [37]: 30%
- Activity [38]: 30%

Molecule: CSCC[C@H](NC(=O)[C@@H](NC(=O)[C@@H](NC(=O)[C@H](Cc1ccc(O)cc1)NC(=O)[C@H](Cc1ccccc1)NC(=O)[C@@H](CN)CCCNC(=N)N)C(C)C)C(C)C)C(=O)N[C@@H](Cc1c[nH]c2ccccc12)C(=O)N[C@@H](CCCCN)CC(=O)O (X1-FYVVMW[β3hK]-OH)
- Stability [7]: Stable
- solubility ([39]; buffer, pH 5, 2000 µM): Insoluble

Molecule: CCCCC(NC(=O)[C@@H](NC(=O)[C@@H](NC(=O)[C@H](Cc1ccc(O)cc1)NC(=O)[C@H](Cc1ccccc1)NC(=O)[C@H](CCCNC(=N)N)NC(=O)[C@H](N)CCCCN)C(C)C)C(C)C)C(=O)N[C@@H](Cc1c[nH]c2ccccc12)C(=O)N[C@@H](CCCCN)C(=O)N[C@H](CCCCN)C(=O)O (some centres undefined)
- Kd [40]: 18 µM
- Activity [1]: 47%

Molecule: CSCC[C@H](NC(=O)[C@@H](NC(=O)[C@@H](NC(=O)[C@H](Cc1ccc(O)cc1)NC(=O)[C@H](Cc1ccccc1)NC(=O)[C@@H](N)CCCNC(=N)N)C(C)C)C(C)C)C(=O)N[C@@H](Cc1c[nH]c2ccccc12)C(=O)N[C@@H](CCCCN)C(=O)O
- Activity [1]: 13%
- solubility at 2000 µM ([39]; 50 mM sodium succinate buffer, pH 5): 30 µM (≈ 33.9 µg/mL)
